# Measured values taken from patent EP0101441B1, “ANTI-VIRAL COMPOSITIONS” (SYNTEX (U.S.A.) INC., priority 1982, dated 1983).
# How the values were obtained:
# [1] = test system: HSV-1-PATTON; assay: Viral plaque titration in human fetal fibroblasts (HFF); format: cell-based, Herpes simplex virus; settings: Example 1, drug µg/ml: G* 1.2, BVDU 0.11, ACG 2.0, PAA 250, same in combinations; for VT (virus titre): HFF cells, no-drug control VT 147; for FTR (fold titre reduction): ratio of control virus titre to that of the test
# Description: (§1) Human fetal fibroblasts (HFF) derived from fetal tissues were used in this study. Cells were grown and maintained in Basal Medium Eagle (BME) supplemented with 0.112% sodium bicarbonate, 2 mML- glutamine, 2 mg% Neomycin and 20% (vol/vol) calf serum.
# (§2) A viral plaque titration method (Roizman and Roane, 1961) was used to determine the titer of the HSV strain. Tissue culture dishes (35 by 10 mm, Corning) were seeded with cells and used for assays when they were approximately 75% monolayer. Volumes (0.2 ml) of logarithmic dilutions of the virus strain were inoculated onto each of two tissue culture dishes and adsorbed for 1 hr with intermittent shaking, the inoculum was removed and 2 ml of 20% BME containing 0.5% human immune serum globulin was added. After a 48 h incubation period at 36°C in a 5% C02 atmosphere, the overlay m'edium was removed, and the cell sheets were stained with a 0.05% aqueous crystal violet solution. The plaque numbers were counted with the aid of a Nikon profile projector which magnified the dishes 10x. Duplicate results were averaged, and the number of plaque-forming units (PFU) was calculated. The virus titre is thus expressed as a number of plaque forming units to be seen after growth under these conditions.
# (§3) In order to make comparisons between the activities of the various drugs and combinations, experiments were conducted by plaque titration to determine for each drug its viral ED-50 (i.e. the concentration thereof which inhibits HSV plaque formation by 50% in the HFF cells, as compared with cell cultures in the absence of the drug). For this purpose, tissue culture dishes (35 by 10 mm) with HFF cell monolayers at 75% confluence were inoculated with approximately 50 plaque-forming units of virus per 0.2 ml, and the virus was allowed to adsorb for 1 hr with intermittent shaking. After removal of the inoculum, 2 ml of 20% BME with 0.5% immune globulin and threefold dilutions of the appropriate drug were added to duplicate dishes. One set of dishes received no drug and was later used for the "no-drug control". After a 48 h incubation period at 36°C in a 5% C02 atmosphere, the overlay medium was removed, the cells were stained as described above, and plaques were counted. After averaging the counts of duplicate plates, the fraction of plaques emerging in the presence of each drug dilution was calculated as a percent of the control. Each drug titration was plotted on semilogarithmic graph paper, with the number of plaques per dish as the vertical axis and the drug concentration as the horizontal axis. The viral ED50 was calculated as that amount of drug per ml of overlay medium that inhibited plaque numbers by 50%, compared to a control (no drug), and this was read off the graphic plot of the data.
# (§4) Three combinations of the drugs were then tested for activity by viral plaque titration, at concentrations which were multiples of the ED50 of the individual drugs. When G^*, BVDU or ACG was present, a concentration ten times that of its ED50 was used in the combination. This was intended to ensure a concentration sufficiently high to limit the numbers of partially drug-resistant virus plaques to a small fraction, in respect of each drug of the combination. In respect of PAA, a concentration of five times the ED50 was used, to avoid cell toxicity problems. The drugs were individually plaque-titrated at the same concentrations, for comparison purposes.
# (§5) The results are given in the first Table headed "HSV-1-PATTON". The column headed "VT" gives the virus titre, expressed in plaque-forming units (PFU) per ml, x10^5; of course, the lower the figure, the greater the inhibitory, anti-viral effect of the tested drug (D). The column headed "FTR" gives the fold titre reduction which is the ratio of virus titre for the control, i.e. no drug, to that of the given test. […]
# [2] = test system: HSV-2-EL4; assay: as above; format: cell-based, Herpes simplex virus; settings: for VT (virus titre): HFF cells, no-drug control VT 750; for FTR (fold titre reduction): ratio of control virus titre to that of the test
# [3] = test system: HSV-2-EL3; assay: as above; format: cell-based, Herpes simplex virus; settings: Example 3, drug µg/ml: G* 2.0, PAA 82, combination 2.0+82; for VT (virus titre): HFF cells, no-drug control VT 77; for FTR (fold titre reduction): ratio of control virus titre to that of the test
# [4] = test system: HSV-2-EL6; assay: as above; format: cell-based, Herpes simplex virus; settings: for VT (virus titre): HFF cells; for FTR (fold titre reduction): ratio of control virus titre to that of the test
# [5] = test system: HSV-1-227; assay: as above; format: cell-based, Herpes simplex virus; settings: Example 3, drug µg/ml: G* 2.0, PAA 80, combination 2.0+80; for VT (virus titre): HFF cells, no-drug control VT 28; for FTR (fold titre reduction): ratio of control virus titre to that of the test
# Description: as §1, §2, §3, §4, §5
# [6] = test system: HSV-1-EL11; assay: as above; format: cell-based, Herpes simplex virus; settings: Example 3, drug µg/ml: G* 0.4, PAA 25, combination 0.4+25; for VT (virus titre): HFF cells, no-drug control VT 8.0; for FTR (fold titre reduction): ratio of control virus titre to that of the test
# [7] = test system: HSV-1-PATTON; assay: as above; format: cell-based, Herpes simplex virus; settings: Example 2, drug µg/ml: G* 0.7, PFA 80, combination 0.7+80; for VT (virus titre): HFF cells, no-drug control VT 3400; for FTR (fold titre reduction): ratio of control virus titre to that of the test
# [8] = test system: HSV-2-EL1; assay: as above; format: cell-based, Herpes simplex virus; settings: Example 3, drug µg/ml: G* 2.0, PAA 76, combination 2.0+76; for VT (virus titre): HFF cells, no-drug control VT 170; for FTR (fold titre reduction): ratio of control virus titre to that of the test
# [9] = cited from earlier work
# [10] = Example 2, drug µg/ml: G* 3.0, PFA 80, combination 3.0+80
# [11] = Example 3, drug µg/ml: G* 2.0, PAA 90, combination 2.0+90
# [12] = Example 2, no-drug control VT 150, drug µg/ml: G* 0.7, PFA 80, combination 0.7+80
# [13] = Example 2, drug µg/ml: G* 0.7, PFA 80, combination 0.7+80
# [14] = Example 3, no-drug control VT 180, drug µg/ml: G* 0.6, PAA 90, combination 0.6+90
# [15] = Example 3, drug µg/ml: G* 0.6, PAA 90, combination 0.6+90
SMILES,VT (virus titre) [1],FTR (fold titre reduction) [1],"VT (virus titre) [2, 10]","FTR (fold titre reduction) [2, 10]","VT (virus titre) [2, 11]","FTR (fold titre reduction) [2, 11]",VT (virus titre) [3],FTR (fold titre reduction) [3],"VT (virus titre) [4, 12]","FTR (fold titre reduction) [4, 13]","VT (virus titre) [4, 14]","FTR (fold titre reduction) [4, 15]",VT (virus titre) [5],FTR (fold titre reduction) [5],VT (virus titre) [6],FTR (fold titre reduction) [6],VT (virus titre) [7],FTR (fold titre reduction) [7],VT (virus titre) [8],FTR (fold titre reduction) [8],other results
"Nc1nc2c(ncn2COCCO)c(=O)[nH]1 [ACG, 9 - [2 - hydroxyethoxymethyl]guanine]","4.7 PFU per ml, x10^5",31,–,–,–,–,–,–,–,–,–,–,–,–,–,–,–,–,–,–,–
"O=c1[nH]c(=O)n([C@H]2C[C@H](O)[C@@H](CO)O2)cc1/C=C/Br [BVDU, bromovinyl-deoxyuridine]","2.1 PFU per ml, x10^5",70,–,–,–,–,–,–,–,–,–,–,–,–,–,–,–,–,–,–,–
"Nc1nc2c(ncn2COC(CO)CO)c(=O)[nH]1 [G*, 9 - [[2 - hydroxy - 1 - (hydroxymethyl)ethoxy]methyl]guanine]","1.1 PFU per ml, x10^5",130,"21 PFU per ml, x10^5",36,"5.9 PFU per ml, x10^5",130,"10 PFU per ml, x10^5",7.7,"40 PFU per ml, x10^5",3.8,"0.90 PFU per ml, x10^5",200,"0.25 PFU per ml, x10^5",110,"0.37 PFU per ml, x10^5",22,"140 PFU per ml, x10^5",24,"8.9 PFU per ml, x10^5",19,–
"O=C(O)CP(=O)(O)O [PAA, phosphonoacetic acid]","3.2 PFU per ml, x10^5",50,–,–,"0.10 PFU per ml, x10^5","7,500","0.36 PFU per ml, x10^5",210,–,–,"31.0 PFU per ml, x10^5",5.8,"1.1 PFU per ml, x10^5",26,"2.8 PFU per ml, x10^5",2.9,–,–,"0.34 PFU per ml, x10^5",500,drug concentrations in topical formulation reported as skin irritant [9]: > 100000 µM
"O=C(O)P(=O)(O)O [PFA, phosphonoformic acid]",–,–,"0.28 PFU per ml, x10^5","2,700",–,–,–,–,"48 PFU per ml, x10^5",3.1,–,–,–,–,–,–,"750 PFU per ml, x10^5",4.5,–,–,skin harm of topical formulation ([9]; drug concentrations in excess of 100 mM): do not appear harmful
